Measured values as given in paper PMC9088798, “An Approach to Derive Functional Peptide Inhibitors of Transcription Factor Activity” (JACS Au, 2022).

Experiments:
[1] = molecular target: T1, cJun bZIP/TRE DNA interaction (Homo sapiens, UniProt P05412); assay: EMSA, antagonism of cJun/TRE DNA interaction; format: biochemical; conditions: cJun bZIP 20 μM, TRE DNA 2 μM, free DNA band intensity, 4°C 30 minutes, pH 8, 1.3% agarose gel; Hill equation; three independent experiments, one SD
T1 construct: The human cJun bZIP domain spans from Arg252 to Leu308; His-SUMO (N, cleaved yes); AS cap (two residues Ala-Ser) (N); GAP cap (three residues Gly-Ala-Pro) (C); made in house; host or cells: E. coli (pET21-His-SUMO plasmid)
T1 sequence (P05412 252-308): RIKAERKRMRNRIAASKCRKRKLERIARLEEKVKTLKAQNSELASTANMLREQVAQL
Source text: Figure 6 HingeW antagonizes cJun/TRE DNA interaction more effectively than A-FosW. (A) CD spectra showing a shift in the TRE DNA peak at ∼281 nm upon addition of cJun, which is reversed by the titration of HingeW into the sample, as HingeW sequesters the cJun in a nonfunctional heterodimer. […] EMSA showing the (C) unbound TRE DNA band shift upon addition of cJun and the subsequent restoration of the unbound DNA band intensity upon titration of either (D) HingeW or (E) A-FosW. (F). For both CD and EMSA, data was averaged from three independent experiments and the plotted error bars indicate one standard deviation.
To provide further evidence of functional antagonism, an electrophoretic mobility shift assay (EMSA) was employed. […] No bound cJun/TRE DNA band was observed as the overall charge of this complex prohibited entry into the gel. Antagonism was therefore best observed by monitoring the intensity of the free DNA band. […]
Control experiments involved the injection of the antagonist peptide sample into the cell containing ITC buffer alone to determine the heat of dilution which was subtracted. The resulting binding data were fit to a one site binding model to extract the enthalpy change of binding (ΔH) and the equilibrium binding constant (K D), from which the free energy change of binding (ΔG) and the entropy change of binding (ΔS) was calculated (41). […]

TRE DNA [2] = assay: CD control, interaction with TRE DNA; format: binding; conditions: peptide 50 µM, TRE DNA 5 µM, CD spectra 260-320 nm
Procedure: (§1) µM) alongside ampicillin, kanamycin and chloramphenicol to maintain the required plasmids, and IPTG (1 mM) to induce protein expression. The library transformants were […]
(§2) however a lower stringency is used initially before selection is increased in later steps.
(§3) Colonies from this first round of selection were pooled and serially grown in liquid culture at starting OD600 of 0.05 and grown at 37°C with shaking at 200 rpm until the OD600 […]
increased to the optimum 4 µM in subsequent passages. Bacteria containing the most effective functional antagonists were expected to produce higher levels of TRE-mDHFR which provides a growth advantage, and these will dominate the culture. At each passage step, a sample of the culture was plated on LB agar (supplemented with antibiotics to maintain plasmids) to select and sequence individual colonies, and a DNA pool was also sequenced. This allows the occurrence of library members to be monitored as winner sequences are selected for. Assay Validation experiments utilised a modified assay methodology whereby overnight cultures from glycerol stocks of the Control Strains (Figure S6) were diluted to OD600=0.5 and 50 µL was plated on a selective M9 minimal […]
Circular Dichroism (CD): An Applied Photophysics Chirascan was used for CD measurements, with a 200 µL sample in a 1 mm path length CD cell. […]

TRE DNA [3] = assay: CD TRE DNA peak, binding of cJun to TRE DNA; conditions: cJun 20 μM, TRE DNA 5 μM, ~281 nm
Procedure: The binding of cJun to TRE DNA can be observed by monitoring a DNA absorbance peak in the CD spectrum centered at ∼281 nm.[44] […] The addition of cJun (20 μM) to TRE DNA (5 μM) decreases this DNA peak by 55% as the cJun engages its target TRE site and alters the DNA structure (Figure 6A). Subsequent titration of HingeW into this bound cJun/TRE DNA mixture reverses the peak shift, with the peak increasing as DNA is released. […]
as §1, §2, §3
increased to the optimum 4 µM in subsequent passages. Bacteria containing the most effective functional antagonists were expected to produce higher levels of TRE-mDHFR which provides a growth advantage, and these will dominate the culture. […] This allows the occurrence of library members to be monitored as winner sequences are selected for. […]

Row | Substance | IC50 [1] [µM] | interaction with TRE DNA (TRE DNA [2]) | decrease of TRE DNA CD peak upon addition of cJun (TRE DNA [3]) [%]
1 | LEQRAEELARENEELEKEAEELEQELDELQAEIEQLEERNYALRKEIEDLQKQLEKL [A-FosW, N-terminal AS and C-terminal GAP caps, 6xHis-tagged] | 12.1 ± 1.9 | no interaction with DNA | 
2 | cJun bZIP: human cJun bZIP domain, Arg252 to Leu308 (target protein) |  |  | 55
